The values that follow come from patent publication US11198705B2, “Hybrid Amphotericin B derivatives with reduced toxicity” (priority 2018, dated 2021).

By MIC is commonly meant the lowest concentration that inhibits growth of the organism. Lower therefore signals greater potency.

A short description of data set [1]: Isothermal titration calorimetry (ITC) sterol binding, ergosterol. To be noted: within detection limits of ITC. An excerpt: (§1) This key discovery opened a path to the rational development of a non-toxic AmB variant. To probe its predicted role in sterol binding, the hydroxyl group was synthetically deleted at the C2′ position on the mycosamine appendage. […] Consistent with the sterol sponge model, this derivative retained good activity against yeast but, most importantly, was nontoxic to human red blood cells and primary (hREC) (FIG. 2B).
(§2) A practical 11-step synthesis of C2′epiAmB using a frontier site-selective acylation method was developed (FIG. 4). Wilcock, B. C. et al., Nat Chem 2012, 4 (12), 996-1003; Uno, B. E. A synthesis enabled understanding of Amphotericin B leading to derivatives with improved therapeutic indices. University of Illinois at Urbana-Champaign, 2014. The sterol binding and cell killing activities was then determined.

Data set [2] can be described thus: Isothermal titration calorimetry (ITC) sterol binding, cholesterol. The note with it: within detection limits of ITC.
Source text: as §1, §2
On the technique in general: Isothermal titration calorimetry measures the heat released or taken up as one component is titrated into another.

Data set [3] is classed as binding. To be noted: UV-Vis/PCA sponge-sterol titration. An excerpt: (§3) However, an alternative method was developed for reproducible formation of homogenous AmB and C2′epiAmB sterol sponge aggregates in vitro. Using these preparations, a quantitative UV-Vis and Principle Component (PCA) based assay for determining the apparent KDS for the binding of AmB and C2′epiAmB to ergosterol and cholesterol (FIGS. 5A-D) was developed.
(§4) Biophysical studies support the conclusion that different capacities to bind cholesterol underlie these striking differences in toxicity for the AmBUreas versus C2′epiAmB (FIG. 15). Isothermal titration calorimetry is unable to distinguish between cholesterol binding in these two series. However, a more sensitive and quantitative UV-Vis/PCA based sponge-sterol titration experiments described above (see Example 1) was employed to quantify the binding of a representative AmB urea (AmBAU) to ergosterol and cholesterol. […] It was reasoned that the lack of cholesterol binding in C2′epiAmB to a ligand-selective allosteric effect was caused by epimerization of the C2′stereocenter (see Example 1), and thus predict that the biophysical effects associated with C2′-epimerization should be transposable to other AmB derivatives.

A short description of data set [4]: UV-Vis/PCA sterol sponge titration, cholesterol. Type of data set: binding.
Source text: as §3, §4

The subject of data set [5] is primary human renal epithelial cells (hREC). An excerpt: As a complementary parallel first step in the screening funnel, the MTC's of all new derivatives will be evaluated against hREC using a WST-8 cell proliferation assay kit as previously described above. The MTC will be determined by calculating the mean of at least two biological replicates.
The next data set relates to human red blood cells. Type of data set: cell-based.
Data set [6] is described as follows: IV toxicity in mice (mortality). The format is in vivo.
Data set [7] relates to Candida and Aspergillus clinical isolates. Briefly: In vitro antifungal activity, Candida and Aspergillus clinical isolates (Evotec). The format is cell-based. The note with it: many Candida and several Aspergillus strains.
In the next data set the test system is A. fumigatus. Briefly: In vitro antifungal activity, A. fumigatus strains (Evotec). Type of data set: cell-based.
In data set [8] the test system is 40 Aspergillus clinical isolates, including azole-resistant A. fumigatus, A. flavus, and A. terreus. As to the kind of experiment: Antifungal testing, extended panel of 40 Aspergillus clinical isolates (Fungus Testing Laboratory, UT-San Antonio). Type of data set: cell-based.
The test system of data set [9] is clinically relevant invasive molds. Briefly: In vitro antifungal activity, panel of clinically relevant invasive molds (FIG. 8C). Type of data set: cell-based. The note with it: many strains, including pan-azole resistant strain F14196.
Data set [10] deals with C. albicans. As to the kind of experiment: MIC against C. albicans with and without pre-complexation with ergosterol. Type of data set: cell-based. The note with it: sponge pre-complexed with ergosterol. An excerpt: Anderson, T. M. et al., Nat Chem Biol 2014, 10 (5), 400-6. […] Davis, S. A., et al., Nat Chem Biol 2015, 11 (7), 481-7. To test whether C2′epiAmB primarily kills cells via the same sterol sponge mechanism, the C2′epiAmB sponge was similarly pre-complexed with ergosterol (FIG. 9). […] Thus, C2′epiAmB similarly kills yeast primarily via sterol binding, and, by extension, the new compounds targeted in this application are expected to have a similar barrier to fungal resistance that has been observed for the past 50+ years with AmB.

Data set [11] deals with C. albicans. As to the kind of experiment: Murine model of invasive candidiasis, single IP injection (FIG. 10). Type of data set: in vivo, neutropenic ICR/Swiss mice. The text has this: Andes, D. et al., Antimicrobial agents and chemotherapy 2001, 45 (3), 922-6. […] Wiederhold, N. P. et al., Antimicrobial agents and chemotherapy 2006, 50 (2), 469-73.
Data set [12] deals with series of important pathogens (Candida and Aspergillus strains). As to the kind of experiment: In vitro antifungal activity of C2′epiAmBAU hybrid vs AmB, C2′epiAmB and AmBAU (FIG. 18). The format is cell-based. The note with it: A. fumigatus 91, A. fumigatus 1163, and A. fumigatus 1100. The text has this:
In a key result, synthesis on small scale was accomplished on the first targeted hybrid derivative, C2′epiAmBAU, as per FIG. 17 confirming the feasibility of the route to these natural product analogs. The initial biological analysis of this first C2′epiAmBUrea derivative was very encouraging since a substantial increase in antifungal potency for C2′epiAmBAU relative to C2′epiAmB was observed (FIG. 18).

Data set [13] relates to A. fumigatus 91, A. fumigatus 1100. As to the kind of experiment: MIC against A. fumigatus 91 and A. fumigatus 1100. Type of data set: cell-based. The text has this:
The results with C2′epiAmBAU strongly support the prediction that C16 modifications will show improved potency compared to C2′epiAmB. […] Thus, it is expected that hybridizations of C2′epiAmB with other urea side chains will yield similar increases in potency without any mammalian toxicity. If this proves not to be the case, other classes of C16 modifications that also increase potency will be pursed. […] Alternative modifications may be pursed at the mycosamine appendage that the modelling predicts should similarly eliminate the water-bridged C2′OH to C13OH hydrogen bond, e.g., C2′deoxygenation, C2′-halodeoxygenation, or C2′-methyldeoxygenation, and thus eliminate cholesterol binding (see FIGS. 3A and 3B). This study anticipates high doses of non-toxic C2′epiAmBUreas will yield a significant reduction in fungal burden and therefore an increase in survival in QD dosing efficacy studies relative to AmB-deoxycholate (Fungizone®), AmBisome®, C2′epiAmB, voriconazole, and caspofungin.

A further data set has as its system yeast. Briefly: Activity against yeast / cell killing (FIG. 2). To be noted: fungal vs human cells. The format is cell-based.
Source text: as §1, §2

A short description of data set [14]: IV toxicity in rats (BUN, ALT/AST, mortality).

The structures appear in SMILES notation. Values after ≈ are worked out from the molar mass of the structure shown.

As for `C[C@@H]1[C@H](O)[C@@H](C)/C=C/C=C/C=C/C=C/C=C/C=C/C=C/[C@H](O[C@@H]2O[C@H](C)[C@@H](O)[C@H](N)[C@H]2O)C[C@@H]2O[C@](O)(C[C@@H](O)C[C@@H](O)[C@H](O)CC[C@@H](O)C[C@@H](O)CC(=O)O[C@H]1C)C[C@H](O)[C@H]2C(=O)O` [C2′epiAmB], in data set [1], the “binding of ergosterol by ITC” value was “bind ergosterol”. Also, in data set [2], the “binding of cholesterol by ITC” value was “not (detectably) cholesterol”. The binding to ergosterol entry in [3] is given as “retained binding”. Further, the binding to cholesterol result in [4] is given as “no detectable binding”. For the same compound, the “minimum toxic concentration (MTC) against primary hRECs” value in data set [5] is over 80 µM. Also, the “toxicity to primary hREC” value in data set [5] is “non-toxic”. The “toxicity to human red blood cells” value in the data set on human red blood cells was “non-toxic”. The mortality result in [6] (IV, mice, 128 mg/kg (highest dose tested)) is “survived”. In addition, in data set [6] (up to the highest dose tested), the toxicity to mice entry is “non-toxic”. Further, the “in vitro antifungal activity” value in data set [7] is reported as “good activity”. Besides, the “potency relative to AmB (less potent)” value is recorded as over 32 times with A. fumigatus (A. fumigatus AF91); 4 fold in the data set on A. fumigatus (A. fumigatus AF293, A1163, and ATC204305); 2-16 times in data set [8] (range over 40 Aspergillus clinical isolates). Further, the “average potency relative to AmB (less potent)” value in [8] (average across all 40 strains) was found to be 5.6 fold. Further, in [9], the antifungal potency entry is recorded as “good antifungal potency”. Further, in the data set with C. albicans [10], the “change in potency upon ergosterol pre-complexation” value was “same reduction in potency”. Moreover, the fungal burden result in the data set on C. albicans [11] (16 mg/kg) is listed as “outstanding reductions in fungal burden”. In the data set on C. albicans [11] (deoxycholate complex, 1, 4, 8, or 16 mg/kg), the efficacy result was “dose-dependent efficacy”. For the same compound, the “resistance of strains to compound” value in data set [12] was “complete or nearly complete resistance”. In addition, the MIC in data set [13] (A. fumigatus 91) was over 64 µM; in [13] (A. fumigatus 1100), 32 µM (≈ 29.6 µg/mL). Besides, the cell killing activities entry in the data set with yeast was “kill fungal but not human cells”. Also, the toxicity in rats result in data set [14] (17.5 mg/kg (highest tested dose)) is given as “no such toxicity”. In addition, the toxicity to rats result in [14] (up to the highest dose tested) is recorded as “non-toxic”.
